Laboratory results as given in article PMC9612005 (Pharmaceutics, 2022).

Experiments:
[1] = test system: cone photoreceptors; assay: µERG a-wave of mouse retinal explants on MEA, photopic (light-adapted) stimulation; type: cell-based; details: for decrease in the a-wave slope vs control / a-wave amplitude / a-wave slope: photopic; for decrease in the a-wave slope vs control: averaged; for decrease in the a-wave slope vs control / cone a-wave responses under photopic stimulation: inhibitor 50 µM, activator 0.1 µM; for a-wave amplitude / a-wave slope: inh 50 µM, act 0.1 µM, mean ±std; for cone a-wave responses under photopic stimulation: ≥+0.5 log
Protocol: (§1) Further animal experiments were performed using adult postnatal-day (P) 25–30 C57BL/6J mice (n = 12). Animals were housed under standard 12 h white cyclic lighting, had free access to food, water, and playgrounds, and were used irrespective of gender. Animal protocols compliant with §4 of the German law on animal protection were reviewed and approved by the Tübingen University committee on animal protection, and registered on 30 March 2022 under the No. AK05/22M. Moreover, experiments were performed in accordance with the ARVO statement for the use of animals in ophthalmic and visual research. All efforts were made to minimize the number of mice used and their suffering.
(§2) The mice were kept overnight in a ventilated light-tight box for dark-adaption. Subsequent procedures were performed under dim red light. The eyes of the mice were enucleated; then, the retina was isolated in extracellular solution containing (in mM): 125 NaCl, 26 NaHCO3, 2.5 KCl, 2 CaCl2, 1 MgCl2, 1.25 NaH2PO4, and 20 glucose, and was maintained at pH 7.4 using carboxygen perfusion (95/5% O2/CO2). All chemicals were obtained from Merck KGaA (Darmstadt, Germany). For MEA recording, the retinas were placed in the MEA-recording chamber (GC-side down). During the recordings, the tissue was perfused with carboxygenated medium at 32 °C. The chamber perfusion rate was adjusted to 2 mL/min.
(§3) Electrophysiological recordings were performed to assess the light dependent retinal responses (photoreceptors µERG and RGCs spikes) by means of a multi-electrode array system (MEA, USB-MEA60-Up-BC-System-E from Multi Channel Systems, Reutlingen, Germany) equipped with MEA 200/30iR-ITO-pr. The recordings were performed at a 25,000 Hz sampling-rate collecting unfiltered raw data. The trigger-synchronized operation of the light stimulation (LEDD1B T-Cube, Thorlabs) and MEA recording were controlled by the recording protocol set within the MCRack software (v 4.6.2, Multi Channel Systems, Reutlingen, Germany) and the digital I/O box (MCS). The light stimulation (white light LED, 2350 mW, MCWHD3, Thorlabs, Newton, NJ, USA) was applied from beneath the transparent glass MEA, guided by optic fiber and optics. A spectrometer USB4000-UV-VIS-ES (Ocean Optics, Orlando, FL, USA) was employed to calibrate the intensity of the applied light-stimulation protocol. To discriminate the rod and cone photoreceptor responses, a light-stimulation protocol for ex vivo MEA recordings was established following the standard in-vivo ERG protocol. For scotopic recordings (rod responses), the animals were dark-adapted (12 h), while for the photopic recordings (cone responses), the retinal explants were light-adapted on the MEA (5 min at intensity of 4.20 × 10^13 photons/cm^2/s), subsequent to scotopic stimulation. The parameters of the light stimuli were set as: light flash 250 ms long (3 repetition per light intensity, 20 s interval). Scotopic: 10 stimuli in 0.5 log steps from −4.5 to 0.0 (1.33 × 10^9–4.20 × 10^13 photons/cm^2/s). Photopic (background light: 4.20 × 10^13 photons/cm^2/s): four stimuli in 0.5 log steps from +0.5 to +2.0 (1.33 × 10^14–4.20 × 10^15 photons/cm^2/s).
(§4) MEA-recorded raw data files were filtered employing a Butterworth 2nd order filter (MC-Rack, Multi-channel systems) to extract the µERG (field potentials: bandpass 0.01–100 Hz) and spikes (high pass 200 Hz). The filtered data were converted to *.hdf files by MC DataManager (v1.6.1.0, Multi Channel Systems, Reutlingen, Germany) for further data processing in MATLAB [39]. Shown traces data are the average of 30 MEA recording electrodes, per condition. n = 5 retinae were recorded per condition. Statistical significance was estimated by one-way ANOVA followed by the Dunnett´s test for multiple comparisons. […]

[2] = test system: rod photoreceptors; assay: µERG a-wave of mouse retinal explants on MEA, scotopic (dark-adapted) stimulation; type: cell-based; details: for photoreceptor (rod) responses under low scotopic light: <−2.0 log; for photoreceptor (rod) responses under low scotopic light / reduction of a-wave amplitudes / decrease in the a-wave slope vs control: inhibitor 50 µM, activator 0.1 µM; for reduction of a-wave amplitudes: higher light intensities (≥−2.0 log); for a-wave amplitude / a-wave slope: inh 50 µM, act 0.1 µM, mean ±std
Protocol: as §1, §2, §3, §4

[3] = scotopic, light intensity 0.0 log
[4] = scotopic, light intensity -0.5 log
[5] = scotopic, light intensity -1.0 log
[6] = scotopic, light intensity -1.5 log
[7] = scotopic, light intensity -2.0 log
[8] = scotopic, light intensity -2.5 log
[9] = scotopic, light intensity -3.0 log
[10] = scotopic, light intensity -3.5 log
[11] = scotopic, light intensity -4.0 log
[12] = scotopic, light intensity -4.5 log

Structure (SMILES) | decrease in the a-wave slope vs control [1] | a-wave amplitude ([1]; light intensity +0.5 log) [µV] | a-wave slope ([1]; light intensity +0.5 log) [µV / 20 ms] | a-wave amplitude ([1]; light intensity +1.0 log) [µV] | a-wave slope ([1]; light intensity +1.0 log) [µV / 20 ms] | a-wave amplitude ([1]; light intensity +1.5 log) [µV] | a-wave slope ([1]; light intensity +1.5 log) [µV / 20 ms] | a-wave amplitude ([1]; light intensity +2.0 log) [µV] | a-wave slope ([1]; light intensity +2.0 log) [µV / 20 ms] | cone a-wave responses under photopic stimulation [1] | photoreceptor (rod) responses under low scotopic light [2] | reduction of a-wave amplitudes ([2]; scotopic) | a-wave amplitude [2, 3] [µV] | a-wave slope [2, 3] [µV / 20 ms] | a-wave amplitude [2, 4] [µV] | a-wave slope [2, 4] [µV / 20 ms] | a-wave amplitude [2, 5] [µV] | a-wave slope [2, 5] [µV / 20 ms] | a-wave amplitude [2, 6] [µV] | a-wave slope [2, 6] [µV / 20 ms] | also measured
O=c1c2nc(Br)n([C@@H]3O[C@@H]4CO[P@@](=O)(S)O[C@H]4[C@H]3O)c2nc2[nH]c(-c3ccccc3)cn12 [Rp-8-Br-PET-cGMPS] | ~90% | -1.53± 0.76 | 0.03± 0.02 | -1.98± 0.87 | -0.04± 0.02 | -1.96± 0.89 | -0.05± 0.05 | -2.27± 0.97 | -0.01± 0.01 | the cone a-wave amplitudes showed only minimal increases | essentially abolished photoreceptor responses | ~ 96% | -7.32± 1.37 | -0.15± 0.11 | -4.49± 1.49 | -0.07± 0.04 | -3.62± 1.17 | -0.07± 0.04 | -2.22± 1.40 | -0.03± 0.03 | light intensity at which rod a-wave response was detectable ([2]; scotopic): −2.0 log units; a-wave amplitude [2, 7]: -1.85± 0.71 µV; a-wave slope [2, 7]: -0.04± 0.03 µV / 20 ms; a-wave amplitude [2, 8]: 0.00± 0.00 µV; a-wave slope [2, 8]: -0.05± 0.03 µV / 20 ms; a-wave amplitude [2, 9]: 0.00± 0.00 µV; a-wave slope [2, 9]: -0.04± 0.02 µV / 20 ms; a-wave amplitude [2, 10]: 0.00± 0.00 µV; a-wave slope [2, 10]: 0.02± 0.02 µV / 20 ms; a-wave amplitude [2, 11]: 0.00± 0.00 µV; a-wave slope [2, 11]: -0.02± 0.00 µV / 20 ms; a-wave amplitude [2, 12]: 0.00± 0.00 µV; a-wave slope [2, 12]: -0.02± 0.03 µV / 20 ms; decrease in the a-wave slope vs control ([2]; scotopic): up to 90%
Nc1nc2c(nc(Sc3ccc(Cl)cc3)n2[C@@H]2O[C@@H]3COP(=O)(O)O[C@H]3[C@H]2O)c(=O)[nH]1 [8-pCPT-cGMP] | ~ 60% | -3.04± 1.68 | -0.04± 0.06 | -7.72± 1.37 | 0.07± 0.22 | -10.79± 1.41 | -0.18± 0.09 | -12.55± 1.72 | -0.23± 0.11 | no effect on cones | rod-responses were essentially absent | 60–80% | -27.81± 6.62 | -0.64± 0.21 | -24.30± 7.17 | -0.39± 0.16 | -18.28± 4.38 | -0.31± 0.09 | -14.14± 3.10 | -0.19± 0.17 | a-wave amplitude [2, 7]: -11.59± 2.75 µV; a-wave slope [2, 7]: -0.12± 0.22 µV / 20 ms; a-wave amplitude [2, 8]: -3.02± 0.74 µV; a-wave slope [2, 8]: -0.07± 0.01 µV / 20 ms; a-wave amplitude [2, 9]: 0.04± 0.05 µV; a-wave slope [2, 9]: 0.09± 0.15 µV / 20 ms; a-wave amplitude [2, 10]: 0.00± 0.00 µV; a-wave slope [2, 10]: -0.04± 0.08 µV / 20 ms; a-wave amplitude [2, 11]: 0.00± 0.00 µV; a-wave slope [2, 11]: 0.02± 0.01 µV / 20 ms; a-wave amplitude [2, 12]: 0.00± 0.00 µV; a-wave slope [2, 12]: 0.11± 0.10 µV / 20 ms; decrease in the a-wave slope vs control ([2]; scotopic): ~ 85%
